Reference: ChEMBL document CHEMBL1137819, “New 9-thiocyanatopupukeanane sesquiterpenes from the nudibranch Phyllidia varicosa and its sponge-prey Axinyssa aculeata” (J Nat Prod, 2003)
Several values for one entry are separate records, joined by “and”; a condition that tells them apart may be missing. Equal entries are not always repeated. Activity calls are given as the source filed them. The calls are words filed in the database; no cut-off is given here.

Columns and labels:
Artemia salina = experiment: Toxicity against Artemia salina assessed as mortality after 24 hrs; type: organism-based; conditions: in vivo
Bacillus subtilis = experiment: Antimicrobial activity against Bacillus subtilis after 24 hrs; type: functional, organism-based
Candida albicans = experiment: Antimicrobial activity against Candida albicans after 24 hrs; type: functional, organism-based

Question: CC(C)[C@@H]1C[C@]2(C)C[C@]3(C)C[C@H]1[C@H]2C[C@@H]3SC#N.CC(C)[C@@H]1C[C@]2(C)C[C@]3(C)C[C@H]1[C@H]2C[C@H]3SC#N was tested. Which Activity (Artemia salina) did it give?
Answer: 90% and 35%

Question: And the LD50 (Artemia salina)?
Answer: 5 ppm

Question: What about the Activity (Bacillus subtilis) of the same compound?
Answer: inactive

Question: What about the Activity (Candida albicans) of the same compound?
Answer: Active
